Test results taken from BindingDB's records for doi:10.1016/0960-894X(96)00232-6 (1996).
pIC50: −log10 of the molar value.

How the values were obtained:
[1] = Inhibition of ET- 1 stimulated arachidonic acid release (AAR) in cultured rabbit renal vascular smooth muscle cells expressing the endothelin B receptor.
[2] = Inhibition of ET- 1 stimulated arachidonic acid release (AAR) in cultured rabbit renal vascular smooth muscle cells expressing the endothelin A receptor.
[3] = Compound was evaluated for the receptor binding activity in rabbit artery vascular smooth muscle cells expressing Endothelin A receptor

pIC50 [1]	pIC50 [2]	pIC50 [3]	SMILES
6.13	5.47		COc1cc2c(Sc3ccc4c(c3)OCO4)c(C(=O)O)n(Cc3ccc4c(c3)OCO4)c2cc1OCc1ccccc1 [1-Benzo[1,3]dioxol-5-ylmethyl-3-(benzo[1,3]dioxol-5-ylsulfanyl)-6-benzyloxy-5-methoxy-1H-indole-2-carboxylic acid]
		5.23	COc1cccc(Sc2c(C(=O)O)sc3ccccc23)c1 [3-(3-Methoxy-phenylsulfanyl)-benzo[b]thiophene-2-carboxylic acid]
		4.64	COc1cccc(Sc2c(C(=O)O)oc3ccccc23)c1 [3-(3-Methoxy-phenylsulfanyl)-benzofuran-2-carboxylic acid]
	7.19		COc1ccc(Sc2c(C(=O)O)n(Cc3ccc4c(c3)OCO4)c3cc4c(cc23)OCO4)cc1OC [5-Benzo[1,3]dioxol-5-ylmethyl-7-(3,4-dimethoxy-phenylsulfanyl)-5H-[1,3]dioxolo[4,5-f]indole-6-carboxylic acid]
